Results reported in patent US8470825B2, “Diazabenzo[de] anthracen-3-one compounds and methods for inhibiting PARP” (Eisai Inc., priority 2005, dated 2013).
Each block holds one compound with its values, some of them ahead of it.

Key:
[1] = target: purified recombinant human PARP (Homo sapiens (Human), UniProt P09874); assay: PARP enzyme assay (IC50); type: biochemical; details: approximate IC50 values
Method: A convenient method to determine IC50 of a PARP inhibitor compound is a PARP assay using purified recombinant human PARP from Trevigan (Gaithersburg, MD), as follows: The PARP enzyme assay is set up on ice in a volume of 100 microliters consisting of 100 mM Tris-HCl (pH 8.0), 1 mM MgCl2, 28 mM KCl, 28 mM NaCl, 0.1 mg/ml of DNase I activated herring sperm DNA (Sigma, Mo.), 3.0 micromolar [3H]nicotinamide adenine dinucleotide (470 mci/mmole), 7 micrograms/ml PARP enzyme, and various concentrations of the compounds to be tested. The reaction is initiated by incubating the mixture at 25° C. After 15 minutes of incubation, the reaction is terminated by adding 500 microliters of ice cold 20% (w/v) trichloroacetic acid. The precipitate formed is transferred onto a glass fiber filter (Packard Unifilter-GF/B) and washed three times with ethanol. After the filter is dried, the radioactivity is determined by scintillation counting.

DRG neurons = assay: DRG neuron morphometry in cisplatin-induced neuropathy in rats; type: in vivo
Method: In this experiment, female Wistar Hannover rats were dosed with neuropathy inducing doses of cisplatin (2 mg/kg IP; twice a week for 4 weeks) with and without compound 4i (40 mg/kg PO daily). The rats were monitored for changes in sensory nerve conduction velocity (SNCV) in the caudal nerve at baseline (pre-cisplatin dosing) and after treatment. Additionally, dorsal root ganglion and sciatic nerve specimens with morphometric analysis on dorsal root ganglion neurons (somatic, nuclear and nucleolar size) were assessed histopathologically. Left L5 dorsal-root ganglia (DRG) of rats from each group were obtained from the sacrificed animals and processed according to previously reported protocols [Cavaletti et al.: […] et al]], resin embedded, and used for light and electron microscope observations and morphometry. On 1 μm thick semithin sections, morphometric determinations of the cross sectional area of the somata, nuclei and nucleoli of DRG neurons were performed using an image analysts software (Image J, NIH). The differences in nerve conduction velocity, and in morphometric data obtained in dorsal root ganglia neurons during the experiment were statistically evaluated using the analysis of variance (ANOVA) and the Tukey-Kramer post-test (significance level set at p<0.05).

[2] = Sensory nerve conduction velocity (SNCV) in cisplatin-induced neuropathy in rats; type: in vivo; details: for SNCV at the end of the experiment, mean: tail nerve; for tail nerve conduction velocity impairment due to chronic cisplatin treatment: co-administration of compound 4i 40 mg/kg PO daily
Method: In this experiment, female Wistar Hannover rats were dosed with neuropathy inducing doses of cisplatin (2 mg/kg IP; twice a week for 4 weeks) with and without compound 4i (40 mg/kg PO daily). The rats were monitored for changes in sensory nerve conduction velocity (SNCV) in the caudal nerve at baseline (pre-cisplatin dosing) and after treatment. Additionally, dorsal root ganglion and sciatic nerve specimens with morphometric analysis on dorsal root ganglion neurons (somatic, nuclear and nucleolar size) were assessed histopathologically. At the beginning and end of the treatment period, each animal underwent the determination of SNCV in the tail as previously described in Cavaletti et al., “Protective Effects of glutathione on cisplatin neurotoxicity in rats,” Int. J. Radiation Oncology, 29, 771-776 (1994) and […] et al., “Low-Dose Glutathione administration in the prevention of cisplatin-induced peripheral neuropathy in rats,” Neuro toxicology, 15, 701-704 (1994). The antidromic SNCV in the tail nerve was assessed by placing recording ring electrodes distally in the tail, while the stimulating ring electrodes were placed 5 cm and 10 cm proximally with respect to the recording point. The latencies of the potentials recorded at the 2 sites after nerve stimulation were determined (peak-to-peak) and nerve conduction velocity was calculated accordingly. The differences in nerve conduction velocity, and in morphometric data obtained in dorsal root ganglia neurons during the experiment were statistically evaluated using the analysis of variance (ANOVA) and the Tukey-Kramer post-test (significance level set at p<0.05).

[3] = test system: Murine melanoma B16 cells; assay: Survival of mice bearing intracranial B16 melanoma, compound + temozolomide; type: in vivo; details: for MST: B16 melanoma in brain; for ILS vs TMZ: increase in lifespan
Method: The intracranial transplantation procedure was performed as described in Tentori L. et al., “Effects of single or split exposure of leukemic cells to temozolomide, combined with poly(ADP-ribose) polymerase inhibitors on cell growth, chromosomal aberrations and base excision repair components,” Cancer Chemother Pharmacol, 47, 361-9 (2001). Murine melanoma B16 cells (10^4) were injected intracranially (ic) into male B6D2F1 (C578L/6×DBA/2) mice. Histological evaluation of tumor growth in the brain was performed 1-5 days after tumor challenge, in order to determine the timing of treatment.
Compound 4i was dissolved in 70 mM PBS without potassium and administered po 1 h before temozolomide (TMZ). TMZ was dissolved in dimethyl-sulfoxide (40 mg/ml), diluted in saline (5 mg/ml) and administered ip at a dose of 100 mg/Kg for five days. Mice were treated with compound 4i by oral gavages once a day for five days, at doses of 10 or 40 mg/kg/day. Median survival times (MST) were determined and the percentage of increase in lifespan (ILS) was calculated as: {[MST (days) of treated mice/MST (days) of control mice]−1}×100. Efficacy of treatments was evaluated by comparing survival curves between treated and control groups.

B16 melanoma = assay: Subcutaneous B16 melanoma growth in mice, compound + temozolomide; type: in vivo; details: Compound 4i 40 mg/kg po + TMZ 100 mg/kg ip once a day for five days; s.c. tumor; day 9 to day 23
Method: The efficacy of TMZ±Compound 4i treatment was also evaluated on melanoma growing subcutaneously (s.c.) in mice. For this purpose B16 cells (2.5×10^5) were inoculated s.c. in the flank of the animal. Tumors were measured with calipers and volume calculated according to the formula: [(width)^2×length]/2. Drug treatment started 6 days after challenge, when the volume of tumor nodules reached 100-150 mm^3. Compound 4i (40 mg/kg po) was administered at 20 min before temozolomide (100 mg/kg ip) once a day for five days. Melanoma growth was monitored by measuring tumor nodules every 3 days for 3 weeks.

[4] = Tukey's multiple comparison test

Chain of purified recombinant human PARP (P09874 whole entry): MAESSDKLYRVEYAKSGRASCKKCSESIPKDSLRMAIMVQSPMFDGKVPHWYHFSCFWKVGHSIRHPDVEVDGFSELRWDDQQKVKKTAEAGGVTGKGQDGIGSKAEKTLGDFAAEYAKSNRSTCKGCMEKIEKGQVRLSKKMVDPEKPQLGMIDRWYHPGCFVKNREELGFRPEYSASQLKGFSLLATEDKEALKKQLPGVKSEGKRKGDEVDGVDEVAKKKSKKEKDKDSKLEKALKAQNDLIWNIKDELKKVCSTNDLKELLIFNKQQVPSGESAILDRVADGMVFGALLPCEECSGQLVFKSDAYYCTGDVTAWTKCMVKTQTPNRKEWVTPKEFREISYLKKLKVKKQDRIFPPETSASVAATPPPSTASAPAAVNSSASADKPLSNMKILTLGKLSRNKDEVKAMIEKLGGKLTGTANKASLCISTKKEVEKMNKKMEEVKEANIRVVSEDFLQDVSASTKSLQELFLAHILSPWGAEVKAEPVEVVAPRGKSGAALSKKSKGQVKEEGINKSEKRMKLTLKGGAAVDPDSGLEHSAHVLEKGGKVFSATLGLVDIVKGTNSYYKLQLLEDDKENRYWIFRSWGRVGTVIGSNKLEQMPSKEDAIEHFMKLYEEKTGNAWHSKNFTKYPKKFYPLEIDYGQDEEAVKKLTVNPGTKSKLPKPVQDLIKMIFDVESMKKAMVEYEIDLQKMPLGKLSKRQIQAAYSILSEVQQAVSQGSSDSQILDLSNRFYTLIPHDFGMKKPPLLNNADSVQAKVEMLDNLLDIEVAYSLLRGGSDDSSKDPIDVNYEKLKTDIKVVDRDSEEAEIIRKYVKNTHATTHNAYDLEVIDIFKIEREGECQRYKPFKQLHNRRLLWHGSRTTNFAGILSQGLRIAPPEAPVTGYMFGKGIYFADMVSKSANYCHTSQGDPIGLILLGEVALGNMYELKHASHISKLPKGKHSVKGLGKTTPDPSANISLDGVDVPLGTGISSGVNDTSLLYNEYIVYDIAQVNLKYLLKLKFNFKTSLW

Compound: O=c1[nH]nc2c3c(cccc13)Oc1ccc(CN3CCC(O)C3)cc1-2 (stereo not shown) [Compound 4l, 10-(3-Hydroxy-pyrrolidin-1-ylmethyl)-2H-7-oxa-1,2-diaza-benzo[de]anthracen-3-one]
IC50 [1]: 100 nM

Compound: [NH2][Pt]([NH2])([Cl])[Cl] [CDDP, Cisplatin, reference compound]
Morphometry on DRG, Nu (nucleus), mean (DRG neurons; CDDP alone): 114.3 μm^2
Morphometry on DRG, Nucl (nucleolus), mean (DRG neurons; CDDP alone): 7.651 μm^2
Morphometry on DRG, Soma, mean (DRG neurons; CDDP alone): 683.4 μm^2
SNCV at the end of the experiment, mean ([2]; CDDP alone 2 mg/kg IP twice a week for 4 weeks): 28.62 m/sec

Compound: O=c1[nH]nc2c3c(cccc13)Oc1ccc(CN3CCC4(CC3)OCCO4)cc1-2 [Compound 4n, 10-(1,4-Dioxa-8-aza-spiro[4.5]dec-8-ylmethyl)-2H-7-oxa-1,2-diaza-benzo[de]anthracen-3-one]
IC50 [1]: 100 nM

Compound: CCN(CC)CCN(C)Cc1ccc2c(c1)-c1n[nH]c(=O)c3cccc(c13)O2 [Compound 4h, 10-{[(2-Diethylamino-ethyl)-methyl-amino]-methyl}-2H-7-oxa-1,2-diaza-benzo[de]anthracen-3-one]
IC50 [1]: 100 nM

Compound: CCN(CCO)Cc1ccc2c(c1)-c1n[nH]c(=O)c3cccc(c13)O2 [Compound 4j, 10-{[Ethyl-(2-hydroxy-ethyl)-amino]-methyl}-2H-7-oxa-1,2-diaza-benzo[de]anthracen-3-one]
IC50 [1]: 100 nM

Compound: O=c1[nH]nc2c3c(cccc13)Oc1ccc(CN3CCC(O)CC3)cc1-2 [Compound 4i]
MST ([3]; Compound 4i 10 mg/kg po + TMZ 100 mg/kg ip x 5 days): 17 days
ILS vs TMZ ([3]; Compound 4i 10 mg/kg po + TMZ x 5): 21%
MST ([3]; Compound 4i 40 mg/kg po + TMZ 100 mg/kg ip x 5 days): 21 days
ILS vs TMZ ([3]; Compound 4i 40 mg/kg po + TMZ x 5): 50%
mean survival time vs TMZ as single agent ([3]; compound 4i + TMZ combination, mice bearing B16 melanoma): significantly higher
Morphometry on DRG, Nu (nucleus), mean (DRG neurons; CDDP + 4i): 121.8 μm^2
Morphometry on DRG, Nucl (nucleolus), mean (DRG neurons; CDDP + 4i): 8.069 μm^2
Morphometry on DRG, Soma, mean (DRG neurons; CDDP + 4i): 822.1 μm^2
Nucleolus Mean Diff., CDDP vs CDDP + 4i (DRG neurons; [4]): −0.4177
Soma Mean Diff., CDDP vs CDDP + 4i (DRG neurons; [4]): −138.7
effect on DRG neuron morphometry (DRG neurons; cisplatin-treated rats with compound 4i): significant effect only on the somatic size of DRG neurons
growth of B16 melanoma vs TMZ alone (B16 melanoma): significantly reduced
IC50 [1]: 40 nM
SNCV at the end of the experiment, mean ([2]; CDDP 2 mg/kg IP twice a week for 4 weeks + 4i 40 mg/kg PO daily): 34.08 m/sec
SNCV Mean Diff., CDDP vs CDDP + 4i [2, 4]: −5.460
tail nerve conduction velocity impairment due to chronic cisplatin treatment [2]: attenuate the deficits in nerve conduction velocity
tail nerve conduction velocity impairment due to chronic cisplatin treatment ([2]; listed as compound 4i): statistically significant reduction

Compound: O=c1[nH]nc2c3c(cccc13)Oc1ccc(CN3CCC(CCO)CC3)cc1-2 [Compound 4m, 10-[4-(2-Hydroxy-ethyl)-piperidin-1-ylmethyl]-2H-7-oxa-1,2-diaza-benzo[de]anthracen-3-one]
IC50 [1]: 100 nM

Compound: Cn1nnc2c(C(N)=O)ncn2c1=O [TMZ, temozolomide, reference compound]
MST ([3]; TMZ alone 100 mg/kg ip x 5): 14 days

Compound: CC(C)N(Cc1ccc2c(c1)-c1n[nH]c(=O)c3cccc(c13)O2)C(C)C [Compound 4k, 10-[(Diisopropylamino)-methyl]-2H-7-oxa-1,2-diaza-benzo[de]anthracen-3-one]
IC50 [1]: 300 nM

Compound: O=C1CCN(Cc2ccc3c(c2)-c2n[nH]c(=O)c4cccc(c24)O3)CC1 [Compound 4s, 10-(4-Oxo-piperidin-1-ylmethyl)-2H-7-oxa-1,2-diaza-benzo[de]anthracen-3-one]
IC50 [1]: 120 nM

The remaining lines, values ahead:

IC50 [1]: 20 nM
Compound: O=C1CN(Cc2ccc3c(c2)-c2n[nH]c(=O)c4cccc(c24)O3)CCN1 [Compound 4d, 10-(3-Oxo-piperazin-1-ylmethyl)-2H-7-oxa-1,2-diaza-benzo[de]anthracen-3-one]

IC50 [1]: 30 nM
Compound: O=c1[nH]nc2c3c(cccc13)Oc1ccc(CN[C@H]3CC[C@H](O)CC3)cc1-2 [Compound 4r, 10-[(4-Hydroxy-cyclohexylamino)-methyl]-2H-7-oxa-1,2-diaza-benzo[de]anthracen-3-one]

IC50 [1]: 30 nM
Compound: O=c1[nH]nc2c3c(cccc13)Oc1ccc(CN3CCN(c4ncccn4)CC3)cc1-2 [Compound 4c, 10-(4-Pyrimidin-2-yl-piperazin-1-ylmethyl)-2H-7-oxa-1,2-diaza-benzo[de]anthracen-3-one]

IC50 [1]: 30 nM
Compound: CC(C)N1CCN(Cc2ccc3c(c2)-c2n[nH]c(=O)c4cccc(c24)O3)CC1 [Compound 4a, 10-(4-Isopropyl-piperazin-1-ylmethyl)2H-7-oxa-1,2-diaza-benzo[de]anthracen-3-one]

IC50 [1]: 50 nM
Compound: O=c1[nH]nc2c3c(cccc13)Oc1ccc(CN3CCCC(O)C3)cc1-2 (stereo not shown) [Compound 4o, 10-(3-Hydroxy-piperidin-1-ylmethyl)-2H-7-oxa-1,2-diaza-benzo[de]anthracen-3-one]

IC50 [1]: 50 nM
Compound: O=c1[nH]nc2c3c(cccc13)Oc1ccc(CNCCN3CCOCC3)cc1-2 [Compound 4q, 10-[(2-Morpholin-4-yl-ethylamino)-methyl]-2H-7-oxa-1,2-diaza-benzo[de]anthracen-3-one]

IC50 [1]: 20 nM
Compound: COCCN1CCN(Cc2ccc3c(c2)-c2n[nH]c(=O)c4cccc(c24)O3)CC1 [Compound 4b, 10-[4-(2-Methoxy-ethyl)-piperazin-1-ylmethyl]-2H-7-oxa-1,2-diaza-benzo[de]anthracen-3-one]

IC50 [1]: 30 nM
Compound: O=c1[nH]nc2c3c(cccc13)Oc1ccc(CN3CC(O)C3)cc1-2 [Compound 4p, 10-(3-Hydroxy-azetidin-1-ylmethyl)-2H-7-oxa-1,2-diaza-benzo[de]anthracen-3-one]
